The subject of assay [1] is transformation lymphoblastique. In words: lymphoblastic transformation test. It counts as cell-based. Particulars: low concentration; vis-à-vis de la Concanavaline A and LPS (Lipopolysaccharides de E. Coli). Here is the method: B) Activité des composés selon l'invention sur le test de transformation lymphoblastique
Sur le test de transformation lymphoblastique, les composés selon l'invention montrent une activité antimitotique, aux doses allant de 5 à 50 µg/ml. […] La mise en évidence d'une activité immuno-stimulante pour certains de ces composés permet d'envisager une autre application thérapeutique.

The subject of assay [2] is cellules spléniques de souris C57BL/6J. The experiment in a line: rosette test in vitro (sheep red blood cells with mouse spleen cells). It is filed as cell-based. As to conditions: for activité inhibitrice sur la formation des rosettes (comparison in words): compared with acide N-méthyl-4-(naphtoyl-1)-pyrrolyl-2-carboxylique; for activité immuno-stimulante (stimulation de la formation des rosettes): result in words. From the text:
A) Activité des composés selon l'invention sur le test des rosettes in vitro
L'étude a été réalisée sur globules rouges de mouton avec des cellules spléniques de souris C57BL/6J.

Experimental findings from EP0223890B1, “Aryl derivatives of pyrrole, their obtention and their use in immunology” (Albert ROLLAND S.A. Société dite, priority 1985, dated 1987) are described below.

For the compound `Cn1cc(C(=O)c2cc([S+](C)[O-])cc3ccccc23)cc1C(=O)O` (centres unmarked) [Acide N-méthyl-4-(3-méthylsulfinylnaphtoyl-1)-pyrrolyl-2-carboxylique], the “activité stimulante à faible concentration” value in assay [1] is listed as “activité stimulante”. In addition, the “activité inhibitrice sur la formation des rosettes (comparison in words)” value in assay [2] is reported as “activité comparable à celle de l'acide N-méthyl-4-(naphtoyl-1 )-pyrrolyl-2-carboxylique”.
With `O=C(O)c1cc(C(=O)c2cccc3ccccc23)c[nH]1` [acide 4-(naphtoyl-1)pyrrolyl-2-carboxylique], the “activité stimulante à faible concentration” value in assay [1] is given as “activité stimulante”. Besides, the “activité inhibitrice sur la formation des rosettes (comparison in words)” value in assay [2] is “activité inhibitrice du même ordre que celle du dérivé N-méthylé”.
For the compound `Cn1cc(C(=O)c2cccc3c2C=CC(O)C3O)cc1C(=O)O` (centres unmarked) [acide N-méthyl-4-(5,6-dihydroxy-5,6-dihydronaphtoyl-1)-pyrrolyl-2-carboxylique], the “activité inhibitrice sur la formation des rosettes (comparison in words)” value in assay [2] is recorded as “activité comparable à celle de l'acide N-méthyl-4-(naphtoyl-1 )-pyrrolyl-2-carboxylique”.
As to `Cn1cc(C(=O)c2cccc3c(O)cccc23)cc1C(=O)O` [dérivé N-méthyl-5-hydroxylé, Acide N-méthyl-4-(5-hydroxy-naphtoyl-1)-pyrrolyl-2-carboxylique], in assay [2], the “activité inhibitrice sur la formation des rosettes (comparison in words)” value is “inhibiteur à un degré identique” and the “activité immuno-stimulante (stimulation de la formation des rosettes)” value is recorded as “activité immuno-stimulante à faible concentration”.
On to `Cn1cc(C(=O)c2cc(O)cc3ccccc23)cc1C(=O)O` [dérivé N-méthyl-(3-hydroxy-naphtoyl-1), Acide N-méthyl-4-(3-hydroxy-naphtoyl-1)-pyrrolyl-2-carboxylique], for which the “activité immuno-stimulante (stimulation de la formation des rosettes)” value in assay [2] is “stimuler la formation des rosettes”.
